Test results as given in patent publication US6551582B2, “Deodorant composition” (Sumitomo Chemical Company, Limited, priority 2001, dated 2003).

Assay: Test Example 1: deodorant effect of sprayed liquid formulations against ammonia gas in a flask
Conditions: after 30 minutes, about 20° C.
Procedure: Into a glass Erlenmeyer flask (1L-volume), 1 mL of 1.8% aqueous solution of ammonia was placed at room temperature (about 20° C.). After the flask was sealed with a rubber stopper and shaken to be filled with ammonia gas, the concentration of ammonia was measured with a gas detector tube (No. 3HM, Gastec Corporation).
Next, 1 mL of each formulation obtained in Production example 1 was sprayed into the flask. The concentration of ammonia was measured with a gas detector tube (No. 3HM, Gastec Corporation) after 30 minutes. A control solution (1 mL) of a mixed solvent without the present deodorant compound was added into an Erlenmeyer flask (1 L-volume) containing ammonia gas, and then the […] of ammonia was measured with the same method after 30 minutes.
Dehydroacetic acid was formulated in the same manner as Production example 1, and then comparative test was carried out by the same method.
The formulations obtained in Production example 2 and 3 were provided to the same test.
Deodorant rates were calculated by formula 1. [formula]

## dehydroacetic acid
1 mL formulation of Production example 1 (5 parts compound, 80 parts ethanol, 15 parts water) sprayed
  Deodorant rate (%) Production example 1: 20%
1 mL formulation of Production example 2 (5 parts compound, 80 parts isopropyl alcohol, 15 parts water) sprayed
  Deodorant rate (%) Production example 2: 25%
1 mL formulation of Production example 3 (5 parts compound, 80 parts glycerin, 15 parts water) sprayed
  Deodorant rate (%) Production example 3: 25%
